According to PubChem BioAssay AID2060907 (Molecular Pharmacology Branch, DTP, NCI, 2025):

Test system: 388556-164-R-J1-PDC complex spheroid viability
Test: Anticancer human tumor 388556-164-R-J1-PDC patient-derived colon adenocarcinoma cell line growth inhibition [RAS]
Details: for viability, T/C: stronger effect = lower value
How it was run: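 Tumour cells grown as complex spheroids with HUVEC endothelial cells and mesenchymal stem cells, treated with RAS pathway inhibitor combinations. Each agent spans half-log steps from near clinical Cmax, or 10 microM where Cmax is unknown.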
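Also: spheroids exposed to compound for 7 days before readout.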
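For viability, T/C in this document: 100% = DMSO vehicle control luminescence.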

## CCc1c2c(nc3ccc(O)cc13)-c1cc3c(c(=O)n1C2)COC(=O)[C@]3(O)CC + C=CC(=O)N1CCN(c2nc(OCC3CCCN3C)nc3c(F)c(-c4nc(N)cc(C)c4C(F)(F)F)c(Cl)cc23)C(C)C1
Curve of first compound, second compound 0.00316 µM
  IC50: 0.0984 µM
Curve of first compound, second compound 0.01 µM
  IC50: 0.119 µM
Curve of first compound, second compound 0.0316 µM
  IC50: 0.0861 µM
Curve of first compound, second compound 0.1 µM
  IC50: 0.0748 µM
Curve of first compound, second compound 0.316 µM
  IC50: 0.0972 µM
Curve of first compound, second compound 1 µM
  IC50: 0.0963 µM
Second compound 0.00316 µM, first compound 0.000949 µM
  viability, T/C: 103%
Second compound 0.00316 µM, first compound 0.003 µM
  viability, T/C: 97.2%
Second compound 0.00316 µM, first compound 0.00949 µM
  viability, T/C: 78%
Second compound 0.00316 µM, first compound 0.03 µM
  viability, T/C: 67.3%
Second compound 0.00316 µM, first compound 0.0949 µM
  viability, T/C: 53.7%
Second compound 0.00316 µM, first compound 0.3 µM
  viability, T/C: 29.9%
Second compound 0.01 µM, first compound 0.000949 µM
  viability, T/C: 110%
Second compound 0.01 µM, first compound 0.003 µM
  viability, T/C: 95.5%
Second compound 0.01 µM, first compound 0.00949 µM
  viability, T/C: 81.4%
Second compound 0.01 µM, first compound 0.03 µM
  viability, T/C: 72%
Second compound 0.01 µM, first compound 0.0949 µM
  viability, T/C: 58.3%
Second compound 0.01 µM, first compound 0.3 µM
  viability, T/C: 31.9%
Second compound 0.0316 µM, first compound 0.000949 µM
  viability, T/C: 99.9%
Second compound 0.0316 µM, first compound 0.003 µM
  viability, T/C: 98.8%
Second compound 0.0316 µM, first compound 0.00949 µM
  viability, T/C: 80.2%
Second compound 0.0316 µM, first compound 0.03 µM
  viability, T/C: 65.2%
Second compound 0.0316 µM, first compound 0.0949 µM
  viability, T/C: 51.4%
Second compound 0.0316 µM, first compound 0.3 µM
  viability, T/C: 23.3%
Second compound 0.1 µM, first compound 0.000949 µM
  viability, T/C: 102%
Second compound 0.1 µM, first compound 0.003 µM
  viability, T/C: 93.3%
Second compound 0.1 µM, first compound 0.00949 µM
  viability, T/C: 74.4%
Second compound 0.1 µM, first compound 0.03 µM
  viability, T/C: 61.3%
Second compound 0.1 µM, first compound 0.0949 µM
  viability, T/C: 51%
Second compound 0.1 µM, first compound 0.3 µM
  viability, T/C: 27.2%
Second compound 0.316 µM, first compound 0.000949 µM
  viability, T/C: 106%
Second compound 0.316 µM, first compound 0.003 µM
  viability, T/C: 92.7%
Second compound 0.316 µM, first compound 0.00949 µM
  viability, T/C: 82.4%
Second compound 0.316 µM, first compound 0.03 µM
  viability, T/C: 67%
Second compound 0.316 µM, first compound 0.0949 µM
  viability, T/C: 50.5%
Second compound 0.316 µM, first compound 0.3 µM
  viability, T/C: 32.7%
Second compound 1 µM, first compound 0.000949 µM
  viability, T/C: 107%
Second compound 1 µM, first compound 0.003 µM
  viability, T/C: 103%
Second compound 1 µM, first compound 0.00949 µM
  viability, T/C: 75.8%
Second compound 1 µM, first compound 0.03 µM
  viability, T/C: 68.1%
Second compound 1 µM, first compound 0.0949 µM
  viability, T/C: 55.2%
Second compound 1 µM, first compound 0.3 µM
  viability, T/C: 28.8%

## O=C(c1ccc(F)c(F)c1Nc1ccc(I)cc1F)N1CC(O)([C@@H]2CCCCN2)C1
Compound 0.01 µM
  viability, T/C: 93.1% [middle of 4 runs]
Compound 0.0316 µM
  viability, T/C: 82.8% [middle of 4 runs]
Compound 0.1 µM
  viability, T/C: 56.3% [middle of 4 runs]
Compound 0.316 µM
  viability, T/C: 40.9% [middle of 4 runs]
Compound 1 µM
  viability, T/C: 22.8% [middle of 4 runs]
Curve of compound
  IC50: 164 nM [middle of 4 runs]

## CC(C)NCC(C(=O)N1CCN(c2ncnc3c2C(C)CC3O)CC1)c1ccc(Cl)cc1 (stereo not given) + CCn1c(-c2cccnc2C(C)OC)c2c3cc(ccc31)N1CCOC(CC(NC(=O)C(C(C)C)N(C)C(=O)C3(F)CCN(C(=O)C#CC(C)(C)N(C)C)CC3)C(=O)N3CCCC(N3)C(=O)OCC(C)(C)C2)C1
Curve of first compound, second compound 0.000949 µM
  IC50: > 10 µM
Curve of first compound, second compound 0.003 µM
  IC50: > 10 µM
Curve of first compound, second compound 0.00949 µM
  IC50: > 10 µM
Curve of first compound, second compound 0.03 µM
  IC50: > 10 µM
Curve of first compound, second compound 0.0949 µM
  IC50: > 10 µM
Curve of first compound, second compound 0.3 µM
  IC50: > 10 µM
Second compound 0.000949 µM, first compound 0.0316 µM
  viability, T/C: 104%
Second compound 0.000949 µM, first compound 0.1 µM
  viability, T/C: 98%
Second compound 0.000949 µM, first compound 0.316 µM
  viability, T/C: 99.6%
Second compound 0.000949 µM, first compound 1 µM
  viability, T/C: 89.8%
Second compound 0.000949 µM, first compound 3.16 µM
  viability, T/C: 105%
Second compound 0.000949 µM, first compound 10 µM
  viability, T/C: 85.4%
Second compound 0.003 µM, first compound 0.0316 µM
  viability, T/C: 105%
Second compound 0.003 µM, first compound 0.1 µM
  viability, T/C: 104%
Second compound 0.003 µM, first compound 0.316 µM
  viability, T/C: 102%
Second compound 0.003 µM, first compound 1 µM
  viability, T/C: 99.1%
Second compound 0.003 µM, first compound 3.16 µM
  viability, T/C: 102%
Second compound 0.003 µM, first compound 10 µM
  viability, T/C: 81.8%
Second compound 0.00949 µM, first compound 0.0316 µM
  viability, T/C: 108%
Second compound 0.00949 µM, first compound 0.1 µM
  viability, T/C: 102%
Second compound 0.00949 µM, first compound 0.316 µM
  viability, T/C: 101%
Second compound 0.00949 µM, first compound 1 µM
  viability, T/C: 90.7%
Second compound 0.00949 µM, first compound 3.16 µM
  viability, T/C: 107%
Second compound 0.00949 µM, first compound 10 µM
  viability, T/C: 91.3%
Second compound 0.03 µM, first compound 0.0316 µM
  viability, T/C: 106%
Second compound 0.03 µM, first compound 0.1 µM
  viability, T/C: 111%
Second compound 0.03 µM, first compound 0.316 µM
  viability, T/C: 84.6%
Second compound 0.03 µM, first compound 1 µM
  viability, T/C: 98.4%
Second compound 0.03 µM, first compound 3.16 µM
  viability, T/C: 106%
Second compound 0.03 µM, first compound 10 µM
  viability, T/C: 81.5%
Second compound 0.0949 µM, first compound 0.0316 µM
  viability, T/C: 84.8%
Second compound 0.0949 µM, first compound 0.1 µM
  viability, T/C: 101%
Second compound 0.0949 µM, first compound 0.316 µM
  viability, T/C: 93.8%
Second compound 0.0949 µM, first compound 1 µM
  viability, T/C: 99.9%
Second compound 0.0949 µM, first compound 3.16 µM
  viability, T/C: 106%
Second compound 0.0949 µM, first compound 10 µM
  viability, T/C: 79.2%
Second compound 0.3 µM, first compound 0.0316 µM
  viability, T/C: 94.5%
Second compound 0.3 µM, first compound 0.1 µM
  viability, T/C: 102%
Second compound 0.3 µM, first compound 0.316 µM
  viability, T/C: 86.6%
Second compound 0.3 µM, first compound 1 µM
  viability, T/C: 87.8%
Second compound 0.3 µM, first compound 3.16 µM
  viability, T/C: 95.5%
Second compound 0.3 µM, first compound 10 µM
  viability, T/C: 72.6%
